Data from patent US20230142803A1, “NATURAL KILLER CELLS AND ILC3 CELLS AND USES THEREOF” (Celularity Inc., priority 2015, published 2023).

What was measured:
CD34+ cells = assay: Three-stage method with SR-1 or CH223191 in Stage 1 and Stage 2 media; type: cell-based; settings: for effects on fold expansion, cell purity (CD56+CD3−), and cytotoxicity of K562 cells: 10 μM and 1 μM, K562 at 10:1 (E:T)
Description: CD34^+ cells are cultured in the following medium formulations for the indicated number of days, and aliquots of cells are taken for assessment of cell count, cell viability, characterization of natural killer cell differentiation and functional evaluation.
Stage 1 medium: 90% Stem Cell Growth Medium (SCGM) (CellGro®), 10% Human Serum-AB, supplemented with 4.5 U/mL low molecular weight heparin (LMWH), 25 ng/mL recombinant human thrombopoietin (TPO), 25 ng/mL recombinant human Flt3L, 27 ng/mL recombinant human stem cell factor (SCF), 25 ng/mL recombinant human IL-7, 0.05 ng/mL recombinant human IL-6 (500-fold), 0.25 ng/mL recombinant human granulocyte colony-stimulating factor (G-CSF) (50-fold), 0.01 ng/mL recombinant human granulocyte-macrophage colony-stimulating factor (GM-CSF) (500-fold), 0.10% gentamicin, and 1 to 10 μm StemRegenin-1 (SR-1).
Stage 2 medium: 90% SCGM, 10% Human Serum-AB, supplemented with 4.5 U/mL low molecular weight heparin (LMWH), 25 ng/mL recombinant human Flt3L, 27 ng/mL recombinant human SCF, 25 ng/mL recombinant human IL-7, 20 ng/mL recombinant human IL-15, 0.05 ng/mL recombinant human IL-6 (500-fold), 0.25 ng/mL recombinant human G-CSF (50-fold), 0.01 ng/mL recombinant human GM-CSF (500-fold), 0.10% gentamicin, and 1 to 10 μm SR1.
Stage 3 medium: 90% […]™, 10% Human Serum-AB, 0.025 mM 2-mercaptoethanol (55 mM), supplemented with 22 ng/mL recombinant human SCF, 1000 U/mL recombinant human IL-2, 20 ng/mL recombinant human IL-7, 20 ng/mL recombinant human IL-15, 0.05 ng/mL recombinant human IL-6 (500-fold), 0.25 ng/mL recombinant human G-CSF (50-fold), 0.01 ng/mL recombinant human GM-CSF (500-fold), and 0.10% gentamicin.
Stemregenin-1 (SR-1) was evaluated as a component of Stage 1 and Stage 2 media using the three-stage method outlined in Example 1, above, at concentrations of 1 μM, 10 μM, and 30 μM. The same concentrations of CH223191 in the three-stage method were also evaluated.

three-stage NK cells = assay: Varying third medium components, flow cytometry evaluation; type: cell-based; settings: presence of SR1 in the third medium
Excerpt: A flow cytometry panel (Table 7) was utilized for evaluation on days 0, 7, 14, 21, 28, and 35, including cell surface markers CD56, CD3, CD117, CD94, IL1R1, CD11a, CD34, and CD14/CD15 and intracellular markers RORγt, AHR, and perforin.

SMILES	effects on fold expansion, cell purity (CD56+CD3−), and cytotoxicity of K562 cells (CD34+ cells)	effect on NK (CD11a+) vs ILC3 (CD11a−) cell production (three-stage NK cells)	cytotoxicity of NK cells produced (CD34+ cells; SR-1 at 10 μM in Stage 1 and Stage 2 media vs 1 μM and 30 μM)
Cc1ccccc1/N=N/c1ccc(NC(=O)c2ccnn2C)c(C)c1 [CH223191, 1-methyl-N-(2-methyl-4-(2-(2-methylphenyl)diazenyl)phenyl)-1H-pyrazole-5-carboxamide]	Comparable effects		
CC(C)n1cnc2c(NCCc3ccc(O)cc3)nc(-c3csc4ccccc34)nc21 [SR-1, 4-(2-(2-(benzo[b]thien-3-yl)-9-isopropyl-9H-purin-6-ylamino)ethyl)phenol]	Comparable effects	favor NK (CD11a+) cell production	higher cytotoxicity than the other two concentrations tested
